Test results from patent US20240415845A1, “Compositions of Iboga Alkaloids and Methods of Treatment” (priority 2022, published 2024).

System: special operations veterans with combat and/or blast exposure
Experiment: Structural MRI (T1w, FreeSurfer): brain volume and cortical thickness
Type: in vivo, human
Description: Structural imaging of the brain was also conducted on some of the subjects of Example 1. Gray matter constitutes about 40% of the brain and white matter constitutes about 60% of the brain. Gray matter contains most of the brain's neuronal cell nodes, it is fully developed once a person reaches their 20's and interprets sensor information from various parts of the body. White matter is made up of bundles which connect various gray matter areas, it develops throughout the 20's and peaks in middle age. Typical metrics analyzed in anatomical (T1-weighted, “T1w”) imaging include volume and/or shape of nuclei (e.g. caudate), volume and/or shape of ventricles of the brain, and cortical thickness (mm). These metrics can be used to study normal and abnormal neuroanatomy and are primarily used to quantify gray matter. A tool called FreeSurfer was applied to images for a T1w structural analysis (volume, cortical thickness) to adjust for bias, remove non-brain matter, segments by tissue, parcels the brain into standardized regions, and provides measurements of those regions. FreeSurfer measurements of whole brain volume, volume by tissue (gray, white, CSF), estimated intracranial volume (ICV), subcortical gray matter volume, cortical volume by region were done. […] In particular, analysis was done to determine if there was any loss in gray matter volume or cortical thickness, whether there was a loss in white matter volume or an increase in presence of white matter […]. Results are summarized in Table 3 and shown in FIGS. 17A-17B, and FIGS. 18A-18B.
The fMRI images were also inspected to determine the difference in volume in regional areas of the brain from baseline to one month after treatment. FIG. 18A is a bar graph showing the effect size of a change in volume in 47 brain regions indicated along the x-axis. […] The fMRI images were also inspected for whole brain thickness at baseline and one month after treatment. […] FIG. 18B is a bar graph showing the effect size of a cortical thickness change for the brain regions indicated along the x-axis, from baseline to one month after treatment. […] The right and left parahippocampal gyrus are involved in visuospatial processing, including scene perception, navigation, and emotional contextualization. The left orbitofrontal gyrus is involved in impulse control and reward valuation. The left insular cortex is associated with both the affective-perceptual and cognitive-evaluative forms of empathy, as well as awareness of hunger, pain and fatigue. The left entorhinal cortex is a widespread network hub for memory, navigation, and perception of time.

[1] = baseline to one month after treatment

## CCC1CC2CC3c4[nH]c5ccc(OC)cc5c4CCN(C2)C13 (stereo not shown) [ibogaine, Ibogaine]
[1]
  regional volume change in cerebral white matter (left) and left ventral DC: Increases in volume
  regional volume change in posterior corpus callosum and left choroid plexus: Decreases in volume
Baseline vs one month post treatment, 17 subjects, two-tailed p = 0.0789
  White matter hypointensities (corrected for cerebral white matter), change: Two-tailed: no significant differences
Baseline vs one month post treatment, 17 subjects, two-tailed p = 0.0949
  Subcortical Gray Matter volume, change: Two-tailed: no significant differences
Baseline vs one month post treatment, 17 subjects, two-tailed p = 0.4755
  Total Gray Matter volume, change: Two-tailed: no significant differences
Baseline vs one month post treatment, 17 subjects, two-tailed p = 0.4847
  Cortical Gray Matter volume, change: Two-tailed: no significant differences
One month after treatment
  damage to the brain by inspection of brain volume and thickness: no apparent damage to the brain
One month after treatment vs baseline
  right hemisphere mean cortical thickness, change: no significant difference
One month after treatment vs baseline, two-tailed p=0.7146
  Left hemisphere mean cortical thickness, change: no significant difference
one-month after treatment
  cortical thickness change in left entorhinal cortex, left-lateral-orbitofrontal pole, parahippocampal gyrus (bilaterally), left insular cortex, right-pars triangularis: Increases in cortical thickness
